The results in this text go back to article PMC4503431, “Impaired Itching Perception in Murine Models of Cholestasis Is Supported by Dysregulation of GPBAR1 Signaling” (PLoS ONE, 2015).

What is called EC50 is the concentration that produces a half-maximal response. Read a high EC50 as a less potent agent.

For one assay, the target named is T1, GPBAR1 (TGR5) (Homo sapiens, UniProt Q8TDU6).
T1 construct: pCMVSPORT6-human GPBAR1
T1 sequence (Q8TDU6 1-330): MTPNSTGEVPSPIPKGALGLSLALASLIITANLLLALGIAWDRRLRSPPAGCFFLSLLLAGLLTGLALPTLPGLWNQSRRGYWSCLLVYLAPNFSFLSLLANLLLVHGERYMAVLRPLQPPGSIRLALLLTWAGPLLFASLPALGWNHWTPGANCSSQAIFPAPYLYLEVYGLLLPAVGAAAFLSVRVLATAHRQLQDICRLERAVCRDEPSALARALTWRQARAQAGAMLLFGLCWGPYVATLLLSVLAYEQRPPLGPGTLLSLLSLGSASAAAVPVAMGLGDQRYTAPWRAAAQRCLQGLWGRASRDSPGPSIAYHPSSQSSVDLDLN
In words: CRE-luciferase transactivation in HEK293T cells transfected with human GPBAR1. The assay is classed as cell-based.

The target in assay [1] is T2, farnesoid X receptor (FXR) (Homo sapiens, UniProt Q96RI1).
T2 construct: gene NR1H4; pSG5-FXR; with RXR (pSG5-RXR cotransfected)
T2 sequence (Q96RI1 1-486): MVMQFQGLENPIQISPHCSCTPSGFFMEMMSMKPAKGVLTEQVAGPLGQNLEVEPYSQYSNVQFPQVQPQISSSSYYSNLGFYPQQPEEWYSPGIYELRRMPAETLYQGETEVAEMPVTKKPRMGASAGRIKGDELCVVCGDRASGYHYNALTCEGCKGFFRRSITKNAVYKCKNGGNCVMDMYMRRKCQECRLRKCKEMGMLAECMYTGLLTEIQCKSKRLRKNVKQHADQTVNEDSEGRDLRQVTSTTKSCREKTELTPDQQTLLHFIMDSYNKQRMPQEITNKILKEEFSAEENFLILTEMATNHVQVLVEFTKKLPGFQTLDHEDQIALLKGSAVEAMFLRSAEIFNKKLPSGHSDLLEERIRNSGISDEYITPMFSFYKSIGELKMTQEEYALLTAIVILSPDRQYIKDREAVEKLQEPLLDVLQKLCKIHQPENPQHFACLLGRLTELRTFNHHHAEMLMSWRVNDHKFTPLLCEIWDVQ
T2 sequence (P19793 1-462 partner): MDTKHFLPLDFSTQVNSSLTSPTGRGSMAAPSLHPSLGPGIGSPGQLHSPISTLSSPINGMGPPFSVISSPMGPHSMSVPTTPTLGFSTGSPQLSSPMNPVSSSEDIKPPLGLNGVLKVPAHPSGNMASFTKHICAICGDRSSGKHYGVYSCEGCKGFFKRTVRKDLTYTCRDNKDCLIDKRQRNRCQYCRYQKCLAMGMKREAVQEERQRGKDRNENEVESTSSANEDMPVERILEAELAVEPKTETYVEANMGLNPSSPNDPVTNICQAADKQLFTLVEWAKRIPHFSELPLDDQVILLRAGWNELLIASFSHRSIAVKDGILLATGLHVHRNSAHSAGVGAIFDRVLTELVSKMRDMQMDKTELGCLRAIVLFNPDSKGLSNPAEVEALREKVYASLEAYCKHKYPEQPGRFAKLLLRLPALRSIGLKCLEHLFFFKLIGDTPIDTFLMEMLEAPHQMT
In words: FXRE (hsp27 IR1) luciferase transactivation in HepG2 cells transfected with FXR and RXR. The class given is cell-based.

With `CC[C@H]1[C@@H](O)[C@@H]2[C@H](CC[C@]3(C)[C@@H]([C@H](C)CCO)CC[C@@H]23)[C@@]2(C)CC[C@@H](O)C[C@@H]12` [BAR502, 6α-ethyl-3α, 7α-dihydroxy-24-nor-5β-cholan-23-ol], the values for the EC50 (on GPBAR1 (TGR5); in assay [1]) were 400 ± 100 nM and 2000 ± 200 nM, respectively.
